Experimental findings from ChEMBL document CHEMBL1127394, “Inhibition of topoisomerase II catalytic activity by pyridoacridine alkaloids from a Cystodytes sp. ascidian: a mechanism for the apparent intercalator-induced inhibition of topoisomerase II” (J Med Chem, 1994) are described below.

A short description of assay [1]: Tested for the cytotoxicity against the repair deficient xrs-6 chinese hamster ovary cell line. The class given is functional, cell-based. The settings on record: Cricetulus griseus.
The nature of assay [2]: Concentration required to reduce ethidium bromide fluorescence to 50% of control in presence of calf thymus DNA.
Assay [3] in a line: Differential cytotoxicity was determined from the ratio between BR1(IC50) and xrs-6 (IC50). Type of assay: functional.
A further assay deals with HCT-116. Description: Tested for the cytotoxicity to inhibit replication assay against the human colon tumor cell line HCT116. Type of assay: functional, cell-based.
Assay [4] concerns the target DNA topoisomerase II (Homo sapiens) (UniProt P11388+Q02880). In words: Effect of dose dependent inhibition of TOPO II-catalyzed kDNA decatenation in vitro. Conditions: Crithidia fasciculata.

The structures appear in SMILES notation.

In general, IC50 refers to the midpoint of a concentration-inhibition curve. Higher therefore signals weaker potency. With `CC(C)=CC(=O)NCCc1c2c3c(ccnc3c3ncsc13)-c1ccccc1N2`, the IC50 in assay [1] was found to be 80 µM; in the assay with HCT-116, 8.3 µM. Moreover, in assay [2], the Concentration for 50% ethidium displacement (C50) was more than 100 µM. Besides, the Ratio in assay [3] is 1.
With `CC(C)=CC(=O)NCCc1c2c(c3nccc4c3c1Nc1ccccc1-4)NC(=O)CS2`, the IC50 in assay [1] turned out to be 8.1 µM; in the assay with HCT-116, 16.3 µM. Also, in assay [2], the Concentration for 50% ethidium displacement (C50) is more than 100 µM. Besides, the Ratio in assay [3] amounted to 1.
One may read the IC90 as the concentration at which the effect reaches the 90% level. Regarding `CC(=O)NCCC1=CC(=O)c2nccc3c2c1nc1ccccc13`, the values for the IC50 (in assay [1]; with HCT-116) were 136 µM and 1.6 µM, respectively. For the same molecule, in assay [2], the Concentration for 50% ethidium displacement (C50) amounted to 54 µM. The same molecule returned an IC90 in assay [4] of 8.4 µM. The Ratio in assay [3] came to 1.
With `COc1cc(NS(C)(=O)=O)ccc1Nc1c2ccccc2nc2ccccc12` [AMSACRINE], the IC50 stood at 0.24 µM in assay [1] and 6.3 µM in the assay on HCT-116. For the same molecule, the IC90 in assay [4] turned out to be 33 µM. Besides, in assay [3], the Ratio was determined as 4.
`CSC1=C(CCNC(C)=O)c2nc3ccccc3c3ccnc(c23)C1=O` [DIPLAMINE]: the IC50 in assay [1] was 71.2 µM; in the assay on HCT-116, less than 1.4 µM. Besides, in assay [2], the Concentration for 50% ethidium displacement (C50) was determined as 21 µM. This molecule also gave an IC90 in assay [4] of 9.2 µM. Also, the Ratio in assay [3] is 1.
As to `c1ccc2c(c1)nc1c3nc4ccccc4c4ccnc(c5nccc2c51)c43` [EILATIN], the Concentration for 50% ethidium displacement (C50) in assay [2] was more than 100 µM. Besides, the IC50 in the assay on HCT-116 is 5.3 µM.
Regarding `COc1cc([C@@H]2c3cc4c(cc3[C@@H](O[C@@H]3O[C@@H]5CO[C@@H](C)O[C@H]5[C@H](O)[C@H]3O)[C@H]3COC(=O)[C@H]23)OCO4)cc(OC)c1O` [ETOPOSIDE], the IC50 in assay [1] was 0.14 µM; in the assay on HCT-116 it was 2.5 µM. Besides, in assay [4], the 90% effect concentration (IC90) was 68 µM. Besides, the Ratio in assay [3] was found to be 7.
As to `CC(=O)NCCc1c2c3c(ccnc3c3ncsc13)-c1ccccc1N2` [KUANONIAMINE D], the IC50 is 88.9 µM in assay [1] and 7.8 µM in the assay with HCT-116. In assay [2], the Concentration for 50% ethidium displacement (C50) worked out at 62 µM. For the same molecule, in assay [3], the Ratio is recorded as 2.
The molecule `O=C1c2c(O)ccc(O)c2C(=O)c2c(NCCNCCO)ccc(NCCNCCO)c21` [MITOXANTRONE] came in with an IC50 in assay [1] of 0.001 µM. For the same molecule, the Ratio in assay [3] is listed as 9.
For `CC(=O)NCCc1c2c(c3nccc4c3c1Nc1ccccc1-4)NC(=O)CS2` [SHERMILAMINE B], the IC50 in assay [1] amounted to 14.9 µM; in the assay with HCT-116, 13.8 µM. Moreover, in assay [2], the Concentration for 50% ethidium displacement (C50) is more than 100 µM. Also, the Ratio in assay [3] worked out at 1.
